Results from patent US6084072A, “Purified lectin and methods of use” (The Regents of the University of Michigan, priority 1993, dated 2000).
“And” between values parts separate entries of the source, which are not always exact repeats. Identical values can stand only once.

Experiments:
hog lymphocytes = conditions: cited from earlier work
[1] = system: adenomatous colonic polyps; assay: Lectin histochemistry, adenomatous colonic polyps; format: binding, human; conditions: glands in adenomatous polyps; mean ± SEM; listed as ACA
Text: Specimens of adenocarcinoma of the colon and adenomatious colonic polyps from resected specimens were obtained from the Pathology Service at the Ann Arbor Veterans Administration Medical Center. These specimens were obtained at surgery or at colonoscopic polypectomy, fixed in buffered formalin, and embedded in paraffin for routine pathological examination. Additional four micron sections were cut for lectin histochemistry after the pathological diagnosis was confirmed.
Four micron paraffin embedded tissue sections attached to glass slides were deparaffinized by serial incubations in xylene (twice), absolute ethanol (thrice), 95% ethanol, 70% ethanol, water and finally equilibrated in phosphate buffered saline (PBS), pH 7.0, containing 0.1% bovine serum albumin (BSA) commercially available from Sigma Corp of St. Louis, Mo. The slides were blotted dry adjacent to the tissue sections, and biotinylated lectin was added at a concentration of 10 μg/ml (for ACA) and 20 μg/ml (for PNA) in a quantity sufficient to completely cover the hydrated tissue (100-2001 μl). The lectin was rinsed off after a 30 minute incubation by eight 2-second dips into phosphate buffered saline. The slides were again blotted, and the tissue covered with Streptavidin-horseradish peroxidase (HRP) obtained from Zymed Laboratories, San Francisco, Calif. at a concentration of 10 μg/ml for 30 minutes. […]

## amaranthin
Hog lymphocytes
  mitogenicity, in words: non-mitogenic
[1]
  Percent of Epithelial Units Labeled: 82±7% and 82%±7% and 82 + 7%
